This note sets out measurements from article PMC5862592, “CDK8/19 inhibition induces premature G1/S transition and ATR-dependent cell death in prostate cancer cells” (Oncotarget, 2018).

Assay in all cases: biochemical
Design in all cases: KINOMEscan active site-directed competition binding assay (DiscoveRx), 456 kinases, per cent of control at 300 nM
Settings in all cases: read-out: Percent of Control (%)

In experiment [1] the target is SRC (Homo sapiens, UniProt P12931). Put shortly: (§1)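 Binding was measured with an active site-directed competition binding assay that quantifies compound–kinase interactions. Test compounds were screened at 300 nmol/L across a 456-kinase panel.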
The target in experiment [2] is PKNB(M.tuberculosis) (Mycobacterium tuberculosis, UniProt P9WI81). In short, it runs like this:
as §1

Experiment [3] addresses RIPK1 (Homo sapiens, UniProt Q13546). Put shortly:
as §1

In experiment [4] the target is ERBB2 (Homo sapiens, UniProt P04626). Put shortly: as §1
The target in experiment [5] is T1, p38-gamma (Homo sapiens, UniProt P53778).
T1 construct: gene MAPK12
Put shortly:
as §1

For experiment [6], the target named is EPHB4 (Homo sapiens, UniProt P54760). In short, it runs like this: as §1
The target of experiment [7] is EPHA7 (Homo sapiens, UniProt Q15375). Put shortly:
as §1

Experiment [8] addresses CSNK1D (Homo sapiens, UniProt P48730). In short, it runs like this: as §1
Experiment [9] deals with NEK7 (Homo sapiens, UniProt Q8TDX7). In short, it runs like this: as §1
The target in experiment [10] is PRKD2 (Homo sapiens, UniProt Q9BZL6). In short, it runs like this: as §1
The target in experiment [11] is TXK (Homo sapiens, UniProt P42681). In short, it runs like this:
as §1

The target of experiment [12] is TTK (Homo sapiens, UniProt P33981). Put shortly: as §1
Experiment [13] concerns the target IGF1R (Homo sapiens, UniProt P08069). In short, it runs like this:
as §1

Experiment [14] addresses BMPR2 (Homo sapiens, UniProt Q13873). In short, it runs like this: as §1
In experiment [15] the target is PIK3CA(H1047Y) (Homo sapiens, UniProt P42336, H1047Y). In short, it runs like this:
as §1

The target in experiment [16] is MST1R (Homo sapiens, UniProt Q04912). Put shortly:
as §1

The target of experiment [17] is TIE1 (Homo sapiens, UniProt P35590). In short, it runs like this: as §1
Experiment [18] addresses CSNK1A1 (Homo sapiens, UniProt P48729). Put shortly: as §1
Experiment [19] concerns the target FLT3(N841I) (Homo sapiens, UniProt P36888, N841I). Put shortly: as §1
In experiment [20] the target is HIPK2 (Homo sapiens, UniProt Q9H2X6). Put shortly: as §1
For experiment [21], the target named is T2, NIK (Homo sapiens, UniProt Q99558).
T2 construct: gene MAP3K14
In short, it runs like this:
as §1

The target in experiment [22] is T3, MEK1 (Homo sapiens, UniProt Q02750).
T3 construct: gene MAP2K1
In short, it runs like this: as §1

Like-named read-outs stand apart in the source and are kept apart here.

Sequence of EPHA7 (Q15375 whole entry): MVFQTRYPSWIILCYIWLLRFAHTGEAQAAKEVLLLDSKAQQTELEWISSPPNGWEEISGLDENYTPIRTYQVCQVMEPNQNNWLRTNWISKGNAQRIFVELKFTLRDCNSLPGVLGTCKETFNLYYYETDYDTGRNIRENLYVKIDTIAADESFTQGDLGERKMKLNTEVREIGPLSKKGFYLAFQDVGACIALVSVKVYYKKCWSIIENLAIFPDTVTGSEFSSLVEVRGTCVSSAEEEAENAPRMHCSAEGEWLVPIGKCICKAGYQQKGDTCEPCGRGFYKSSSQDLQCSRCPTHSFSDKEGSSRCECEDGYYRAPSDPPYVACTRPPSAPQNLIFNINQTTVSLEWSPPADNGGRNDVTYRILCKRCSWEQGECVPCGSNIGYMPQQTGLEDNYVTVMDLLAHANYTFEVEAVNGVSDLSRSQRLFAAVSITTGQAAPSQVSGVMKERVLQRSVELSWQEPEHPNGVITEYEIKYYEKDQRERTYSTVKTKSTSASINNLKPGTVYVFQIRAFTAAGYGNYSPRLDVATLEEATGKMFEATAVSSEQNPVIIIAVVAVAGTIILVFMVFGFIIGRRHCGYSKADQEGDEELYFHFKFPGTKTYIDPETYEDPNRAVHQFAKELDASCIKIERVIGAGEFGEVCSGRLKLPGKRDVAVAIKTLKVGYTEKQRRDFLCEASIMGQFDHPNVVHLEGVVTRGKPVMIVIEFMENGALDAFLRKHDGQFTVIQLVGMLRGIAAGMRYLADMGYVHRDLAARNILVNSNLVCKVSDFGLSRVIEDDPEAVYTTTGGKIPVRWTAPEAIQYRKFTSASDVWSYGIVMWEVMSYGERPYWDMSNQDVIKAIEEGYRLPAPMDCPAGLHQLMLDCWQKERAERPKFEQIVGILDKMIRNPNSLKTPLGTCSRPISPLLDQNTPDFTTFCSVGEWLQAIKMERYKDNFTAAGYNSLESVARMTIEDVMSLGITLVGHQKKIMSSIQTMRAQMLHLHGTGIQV
Sequence of PKNB(M.tuberculosis) (P9WI81 whole entry): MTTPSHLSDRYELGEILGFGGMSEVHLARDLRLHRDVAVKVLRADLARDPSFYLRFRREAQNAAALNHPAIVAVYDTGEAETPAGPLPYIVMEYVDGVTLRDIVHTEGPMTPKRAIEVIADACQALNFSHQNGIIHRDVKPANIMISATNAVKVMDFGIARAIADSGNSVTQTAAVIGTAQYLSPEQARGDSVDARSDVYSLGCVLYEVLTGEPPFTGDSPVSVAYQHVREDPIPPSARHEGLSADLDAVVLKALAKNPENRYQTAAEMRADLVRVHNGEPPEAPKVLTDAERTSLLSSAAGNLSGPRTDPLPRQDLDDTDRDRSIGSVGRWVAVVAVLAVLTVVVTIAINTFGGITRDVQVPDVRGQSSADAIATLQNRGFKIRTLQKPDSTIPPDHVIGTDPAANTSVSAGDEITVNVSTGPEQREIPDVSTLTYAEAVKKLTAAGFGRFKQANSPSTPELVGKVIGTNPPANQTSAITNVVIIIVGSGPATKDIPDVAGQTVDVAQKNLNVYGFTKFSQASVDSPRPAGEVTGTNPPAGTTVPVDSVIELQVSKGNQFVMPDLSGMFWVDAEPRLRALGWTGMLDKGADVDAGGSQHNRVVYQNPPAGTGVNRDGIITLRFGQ
Sequence of PRKD2 (Q9BZL6 whole entry): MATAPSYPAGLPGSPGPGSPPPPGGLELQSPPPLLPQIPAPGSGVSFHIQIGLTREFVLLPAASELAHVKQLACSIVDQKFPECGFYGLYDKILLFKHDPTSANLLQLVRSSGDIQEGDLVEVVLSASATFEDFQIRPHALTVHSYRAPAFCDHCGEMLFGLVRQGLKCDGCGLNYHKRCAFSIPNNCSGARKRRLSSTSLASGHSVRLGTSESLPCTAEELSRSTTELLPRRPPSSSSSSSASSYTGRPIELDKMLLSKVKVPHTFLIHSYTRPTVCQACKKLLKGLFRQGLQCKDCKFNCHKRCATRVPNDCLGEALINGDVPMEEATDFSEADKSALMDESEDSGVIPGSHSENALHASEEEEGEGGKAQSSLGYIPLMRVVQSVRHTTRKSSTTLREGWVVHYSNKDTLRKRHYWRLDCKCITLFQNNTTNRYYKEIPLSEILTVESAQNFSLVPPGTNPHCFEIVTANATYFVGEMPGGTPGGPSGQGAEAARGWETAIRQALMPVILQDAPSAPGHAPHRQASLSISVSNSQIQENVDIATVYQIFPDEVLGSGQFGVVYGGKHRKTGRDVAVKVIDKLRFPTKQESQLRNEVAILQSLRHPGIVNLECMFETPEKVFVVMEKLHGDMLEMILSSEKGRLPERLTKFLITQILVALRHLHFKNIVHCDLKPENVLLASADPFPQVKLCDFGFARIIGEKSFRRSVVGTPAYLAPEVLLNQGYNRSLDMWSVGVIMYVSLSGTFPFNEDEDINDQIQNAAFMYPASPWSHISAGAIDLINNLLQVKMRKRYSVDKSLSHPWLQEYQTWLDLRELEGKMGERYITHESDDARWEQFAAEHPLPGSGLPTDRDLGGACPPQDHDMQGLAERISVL
Sequence of SRC (P12931 whole entry): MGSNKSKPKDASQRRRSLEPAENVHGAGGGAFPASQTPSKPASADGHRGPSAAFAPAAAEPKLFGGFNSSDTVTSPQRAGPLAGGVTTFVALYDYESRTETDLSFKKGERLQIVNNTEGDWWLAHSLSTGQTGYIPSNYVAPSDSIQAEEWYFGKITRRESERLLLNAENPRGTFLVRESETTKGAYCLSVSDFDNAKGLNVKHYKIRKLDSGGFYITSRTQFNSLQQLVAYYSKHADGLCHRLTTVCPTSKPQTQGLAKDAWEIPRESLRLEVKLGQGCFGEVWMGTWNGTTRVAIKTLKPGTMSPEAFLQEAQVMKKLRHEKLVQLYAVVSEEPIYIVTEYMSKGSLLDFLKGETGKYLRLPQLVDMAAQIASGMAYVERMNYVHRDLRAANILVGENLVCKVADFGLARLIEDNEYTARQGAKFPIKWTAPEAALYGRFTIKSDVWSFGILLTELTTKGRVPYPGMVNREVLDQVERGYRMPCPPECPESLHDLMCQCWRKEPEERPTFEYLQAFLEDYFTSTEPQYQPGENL
Sequence of BMPR2 (Q13873 whole entry): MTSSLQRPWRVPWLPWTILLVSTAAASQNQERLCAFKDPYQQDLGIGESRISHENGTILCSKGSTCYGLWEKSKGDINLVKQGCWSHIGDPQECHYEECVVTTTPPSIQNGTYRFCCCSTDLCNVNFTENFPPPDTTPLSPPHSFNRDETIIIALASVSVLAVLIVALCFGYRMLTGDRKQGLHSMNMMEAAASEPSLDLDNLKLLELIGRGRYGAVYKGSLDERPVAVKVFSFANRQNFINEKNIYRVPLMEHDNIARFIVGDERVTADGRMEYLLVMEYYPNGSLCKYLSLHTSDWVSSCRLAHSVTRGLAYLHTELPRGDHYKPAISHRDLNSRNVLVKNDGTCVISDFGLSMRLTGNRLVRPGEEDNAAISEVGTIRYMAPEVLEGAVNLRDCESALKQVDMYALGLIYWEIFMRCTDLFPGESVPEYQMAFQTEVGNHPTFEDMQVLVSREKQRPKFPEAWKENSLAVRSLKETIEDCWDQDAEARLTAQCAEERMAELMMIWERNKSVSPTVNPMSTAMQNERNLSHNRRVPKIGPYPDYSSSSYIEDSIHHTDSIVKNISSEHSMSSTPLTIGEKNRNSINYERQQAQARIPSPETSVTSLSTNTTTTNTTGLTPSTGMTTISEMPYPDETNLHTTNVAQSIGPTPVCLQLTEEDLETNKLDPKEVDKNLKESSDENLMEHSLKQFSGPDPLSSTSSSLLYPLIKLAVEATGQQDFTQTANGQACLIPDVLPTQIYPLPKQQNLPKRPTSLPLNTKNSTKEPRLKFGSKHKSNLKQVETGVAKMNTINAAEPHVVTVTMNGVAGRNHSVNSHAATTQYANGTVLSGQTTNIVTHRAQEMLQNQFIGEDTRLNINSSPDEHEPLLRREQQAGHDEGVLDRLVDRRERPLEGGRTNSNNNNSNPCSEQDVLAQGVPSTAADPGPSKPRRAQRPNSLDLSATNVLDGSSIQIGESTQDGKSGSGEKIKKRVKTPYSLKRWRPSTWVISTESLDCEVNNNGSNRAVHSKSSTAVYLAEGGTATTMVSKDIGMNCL
Sequence of EPHB4 (P54760 whole entry): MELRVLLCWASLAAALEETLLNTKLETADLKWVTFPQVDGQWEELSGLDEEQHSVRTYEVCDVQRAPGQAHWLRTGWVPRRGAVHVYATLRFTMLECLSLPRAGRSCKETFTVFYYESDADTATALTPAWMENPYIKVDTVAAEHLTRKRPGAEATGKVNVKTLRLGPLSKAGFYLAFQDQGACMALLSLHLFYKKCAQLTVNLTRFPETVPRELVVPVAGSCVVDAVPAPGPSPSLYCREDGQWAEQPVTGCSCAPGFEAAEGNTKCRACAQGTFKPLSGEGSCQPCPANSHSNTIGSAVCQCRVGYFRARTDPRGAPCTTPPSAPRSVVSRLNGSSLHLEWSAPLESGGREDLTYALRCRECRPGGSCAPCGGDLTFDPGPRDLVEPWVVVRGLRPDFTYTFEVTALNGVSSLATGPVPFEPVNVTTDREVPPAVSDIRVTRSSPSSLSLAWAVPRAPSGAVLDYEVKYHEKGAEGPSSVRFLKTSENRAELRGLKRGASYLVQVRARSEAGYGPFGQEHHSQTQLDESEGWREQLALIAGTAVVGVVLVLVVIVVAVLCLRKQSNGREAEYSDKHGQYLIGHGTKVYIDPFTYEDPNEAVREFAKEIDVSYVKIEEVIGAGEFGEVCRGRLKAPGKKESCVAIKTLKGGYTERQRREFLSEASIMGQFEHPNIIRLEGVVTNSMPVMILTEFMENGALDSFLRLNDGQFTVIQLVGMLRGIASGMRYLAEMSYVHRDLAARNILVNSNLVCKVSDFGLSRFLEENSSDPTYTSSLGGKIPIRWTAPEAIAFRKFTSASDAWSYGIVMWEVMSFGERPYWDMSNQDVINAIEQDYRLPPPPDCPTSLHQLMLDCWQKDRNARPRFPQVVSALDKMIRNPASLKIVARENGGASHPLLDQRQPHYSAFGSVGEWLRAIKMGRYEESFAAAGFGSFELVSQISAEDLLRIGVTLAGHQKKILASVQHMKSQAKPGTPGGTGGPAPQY

Turning to `Cc1ncccc1Oc1sc(C(N)=O)c2c1-c1c(cnn1C)CC2` [T-474, 1-methyl-8-((2-methylpyridin-3-yl)oxy)-4,5-dihydro-1H-thieno[3,4-g]indazole-6-carboxamide], the remaining binding at 0.3 µM came to 96% in experiment [1]; 75% in experiment [2]; 95% in [3]; 47% in [4]; 100% in experiment [5]; 100% in [6]. In addition, the remaining binding at 0.3 µM in experiment [7] was 94%; in experiment [8], 61%; in [9], 100%; in experiment [10], 100%; in [11], 66%; in [12], 97%. Also, the remaining binding at 0.3 µM in [13] is 98%; in experiment [14], 99%; in [15] it was 54%; in experiment [16], 95%; in experiment [17], 100%; in experiment [18], 98%. The remaining binding at 0.3 µM in experiment [19] turned out to be 97%; in experiment [20], 42%; in experiment [21], 100%; in experiment [22], 100%.
As for `O=C(/C=C/c1cnccc1-c1ccc(F)cc1)Nc1ccc(CCc2nnco2)cc1` [T-418, (2E)-3-(4-(4-fluorophenyl)pyridin-3-yl)-N-(4-(2-(1,3,4-oxadiazol-2-yl)ethyl)phenyl)acrylamide], the remaining binding at 0.3 µM came to 90% in experiment [1] (sheet T-418); 84% in [2] (sheet T-418); 83% in [3] (sheet T-418); 52% in experiment [4] (sheet T-418); 86% in experiment [5] (sheet T-418); 96% in experiment [6] (sheet T-418). The remaining binding at 0.3 µM in experiment [7] (sheet T-418) was determined as 96%; in [8] (sheet T-418) it was 84%; in experiment [9] (sheet T-418), 100%; in experiment [10] (sheet T-418), 76%; in experiment [11] (sheet T-418) it was 72%; in experiment [12] (sheet T-418), 90%. The remaining binding at 0.3 µM was 87% in experiment [13] (sheet T-418); 86% in [14] (sheet T-418); 73% in experiment [15] (sheet T-418); 100% in [16] (sheet T-418); 100% in experiment [17] (sheet T-418); 100% in experiment [18] (sheet T-418). The remaining binding at 0.3 µM in experiment [19] (sheet T-418) turned out to be 79%; in [20] (sheet T-418), 53%; in experiment [21] (sheet T-418), 100%; in [22] (sheet T-418) it was 100%.
